Reference: patent US12391962B2, “Targeting peptide to deliver a compound to oocytes” (THE PENN STATE RESEARCH FOUNDATION, priority 2017, dated 2025)

Key:
B. tabaci ovaries = assay: Validation of the BtKV ovary targeting ligand (epifluorescence of dissected ovaries); assay type: in vivo, Bemisia tabaci; conditions: ovaries dissected 24 hours post-injection; vs PBS-injected controls
Protocol: For initial experiments B. tabaci adults of unknown age and mating status were aspirated from the colony cage into 2-dram screw cap vials, placed in ice to anesthetize the insects, sexed, and transferred to a standard plain glass slide with double-sided tape on a chill table. For later experiments we established a synchronous colony so that we could control for the age of injected insects (see below). For localization of BtKV fusion protein into the embryos, female B. tabaci were injected in the abdomen with BtKV-mCherry fusion protein (3 mg/ml) or PBS control using quartz capillary needles. Samples were collected 24 hours post injection and ovaries dissected onto a concavity microscope slide with a glass coverslip and imaged by epifluorescence microscopy.
We therefore designed a new targeting peptide suitable for this insect species based on its endogenous vitellogenin protein (“BtKV”; […] (SEQ ID NO: 30)) (see methods). B. tabaci oocyte development is asynchronous with stage I, II, III, and IV at 11 days post eclosion or older^19 where oocytes are always developing. Developmental phase II oocytes have the highest amount of vitellogenin uptake via endocytosis and nutrient cord^19. After injection of BtKV-mCherry into reproductive adult B. tabaci females, ovaries were dissected after 24 hours and visualized for red fluorescence.

B. tabaci white gene = assay: Knockout of the B. tabaci white gene by ReMOT Control (adult female injection); assay type: in vivo, Bemisia tabaci; conditions: BtKV as the targeting peptide
Protocol: The females were injected and placed on a piece of soybean leaflet in a petri dish with a moist paper towel wrapped around the stem and another paper towel on the bottom plate to prolong the life of the leaflet. Water and liquid fertilizer were added as needed. Females were removed from the leaflet 2 weeks post injection. The petri dishes were incubated at 28° C., 16L/8D cycle, in a humidified Heratherm IMH750-S reach-in chamber, and the progeny of injected females screened visually for altered eye color in nymphs or adults using an Olympus SZX7 stereomicroscope. Mutations in insects showing altered eye color were confirmed by PCR using PHIRE Tissue Direct PCR Master Mix (Thermo Fischer Scientific), the amplicon was cloned into pJET1.2, and clones were submitted for Sanger sequencing.
For proof of principle gene editing experiments, we chose the white gene, which is an ABC transporter protein responsible for transport of ommochrome pigments into the eyes.

KPYGVYKTMEDSV (listed as Bemisia tabaci) [BtKV]
fluorescent cargo in oocytes (B. tabaci ovaries): visible in dissected mature oocytes | independent replicate injection experiments from which white-eye nymphal offspring were recovered (B. tabaci white gene): 7 of 14
